Measurements: the supplement of paper PMC10307832

Assays:
Test in all cases: relative viability (nuclei count vs DMSO), 5 days (fraction); higher = more cells survive
[1] = compound: CCC1=CN=CN=C1N2CCN(CC2)CC3=NC4=C(N3)C=C(C=C4)C(F)(F)F + CC1(C)CCC(c2ccc(Cl)cc2)=C(CN2CCN(c3ccc(C(=O)NS(=O)(=O)c4ccc(N[C@H](CCN5CCOCC5)CSc5ccccc5)c(S(=O)(=O)C(F)(F)F)c4)cc3)CC2)C1 [Navitoclax] (partner 0.5 µM)
In short: (§1)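 Dosing by pin tool came one day after lung cancer cell lines were seeded in 1536-well plates, using either one drug or a fixed anchor-drug dose plus five library-drug doses (not always all listed) in √10 steps. After 5 days, nuclei were counted on 4× images. Relative viability is treated-well nuclei count divided by vehicle-well nuclei count, and values are medians of duplicate plates.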

Mirin + Navitoclax = compound: N=C1NC(=O)/C(=C/c2ccc(O)cc2)S1 [Mirin] + CC1(C)CCC(c2ccc(Cl)cc2)=C(CN2CCN(c3ccc(C(=O)NS(=O)(=O)c4ccc(N[C@H](CCN5CCOCC5)CSc5ccccc5)c(S(=O)(=O)C(F)(F)F)c4)cc3)CC2)C1 [Navitoclax] (partner 0.5 µM)
In short: as §1

Mirin + Tozasertib = compound: N=C1NC(=O)/C(=C/c2ccc(O)cc2)S1 [Mirin] + Cc1cc(Nc2cc(N3CCN(C)CC3)nc(Sc3ccc(NC(=O)C4CC4)cc3)n2)n[nH]1 [Tozasertib] (partner 0.1 µM)
In short: as §1

Mirin + Alpelisib = compound: N=C1NC(=O)/C(=C/c2ccc(O)cc2)S1 [Mirin] + Cc1nc(NC(=O)N2CCC[C@H]2C(N)=O)sc1-c1ccnc(C(C)(C)C(F)(F)F)c1 [Alpelisib] (partner 2 µM)
In short: as §1

Cell Line | relative viability ([1]; first compound 0.04 µM) | relative viability ([1]; first compound 0.1265 µM) | relative viability ([1]; first compound 0.4 µM) | relative viability ([1]; first compound 1.265 µM) | relative viability ([1]; first compound 4 µM) | relative viability (Mirin + Navitoclax; first compound 0.25 µM) | relative viability (Mirin + Navitoclax; first compound 0.7906 µM) | relative viability (Mirin + Navitoclax; first compound 2.5 µM) | relative viability (Mirin + Navitoclax; first compound 7.906 µM) | relative viability (Mirin + Navitoclax; first compound 25 µM) | relative viability (Mirin + Tozasertib; first compound 0.25 µM) | relative viability (Mirin + Tozasertib; first compound 0.7906 µM) | relative viability (Mirin + Tozasertib; first compound 2.5 µM) | relative viability (Mirin + Tozasertib; first compound 7.906 µM) | relative viability (Mirin + Tozasertib; first compound 25 µM) | relative viability (Mirin + Alpelisib; first compound 0.25 µM) | relative viability (Mirin + Alpelisib; first compound 0.7906 µM) | relative viability (Mirin + Alpelisib; first compound 2.5 µM) | relative viability (Mirin + Alpelisib; first compound 7.906 µM) | relative viability (Mirin + Alpelisib; first compound 25 µM)
HCC-78 | 0.654 | 0.832 | 0.831 | 0.476 | 0.525 | 0.758 | 0.712 | 0.866 | 0.847 | 0.674 | 0.409 | 0.492 | 0.386 | 0.337 | 0.33 | 0.389 | 0.393 | 0.366 | 0.291 | 0.298
HCC-366 | 1.07 | 1.04 | 1 | – | 1.05 | 1.1 | 1.02 | 1.06 | 1.1 | 0.958 | 0.15 | – | 0.602 | 0.0813 | 0.103 | 0.34 | 0.37 | 0.545 | 0.296 | 0.253
HCC-827 | 1.08 | 1.03 | 1.03 | 0.903 | 0.937 | 1.01 | 1 | 1 | 1.07 | 1.27 | 0.412 | 0.39 | 0.421 | 0.384 | 0.426 | 1.02 | 1.02 | 0.958 | 1.01 | 1.12
HOP-62 | 1.06 | 1.07 | 1.04 | 0.898 | 0.927 | 1.03 | 1.02 | 0.955 | 0.888 | 1.43 | 0.367 | 0.381 | 0.357 | 0.257 | 0.324 | 0.969 | 1.02 | 1.13 | – | 0.939
IA-LM | 0.733 | 0.806 | 0.646 | 0.654 | 0.695 | 0.835 | 0.899 | 0.705 | 0.498 | 0.752 | – | – | – | – | – | 0.668 | 0.768 | 0.797 | 0.434 | 0.812
LC-2-ad | 0.459 | 0.603 | 0.522 | 0.324 | 0.351 | 0.452 | 0.673 | 0.466 | 0.36 | 0.401 | 0.459 | 0.35 | 0.476 | 0.342 | 0.256 | 0.865 | 0.926 | 0.98 | 0.821 | 0.726
LCLC-97TM1 | 0.411 | 0.384 | 0.396 | 0.489 | 0.396 | 0.314 | 0.515 | 0.511 | 0.194 | 0.288 | 0.191 | 0.151 | 0.19 | 0.138 | 0.122 | 0.253 | 0.31 | 0.197 | 0.18 | 0.129
LCLC-103H | – | – | – | – | – | – | – | – | – | – | 0.417 | 0.554 | 0.481 | 0.461 | 0.336 | 0.917 | 1.02 | 0.908 | 1.05 | 1.1
LK-2 | 0.773 | 0.801 | 0.714 | 0.688 | 0.761 | 0.752 | 0.625 | 0.799 | 0.588 | 0.525 | 0.188 | – | 0.149 | 0.166 | 0.16 | 0.899 | – | 1.1 | 0.743 | 0.397
LOU-NH91 | 0.626 | 0.692 | 0.708 | 0.583 | 0.752 | 0.681 | – | 0.673 | 0.718 | 0.76 | 0.661 | 0.614 | 0.673 | 0.465 | 0.42 | 0.726 | – | 0.728 | 0.65 | 0.747
LU99A | 0.846 | 0.825 | 0.864 | 0.709 | 0.657 | 0.706 | 0.677 | 0.92 | 0.742 | 0.542 | 0.241 | 0.216 | 0.27 | 0.207 | 0.18 | 0.541 | 0.518 | 0.498 | 0.376 | 0.352
NCI-H358 | – | – | – | – | – | – | – | – | – | – | 0.11 | 0.0924 | 0.114 | 0.0872 | 0.106 | 0.822 | 0.876 | 0.943 | 0.723 | 0.461
NCI-H522 | – | – | – | – | – | – | – | – | – | – | 0.491 | 0.538 | 0.582 | 0.517 | 0.472 | – | – | – | – | –
NCI-H650 | – | – | – | – | – | – | – | – | – | – | 0.684 | 0.557 | 0.707 | – | 0.51 | 1.04 | – | 1.09 | – | 1.1
NCI-H661 | – | – | – | – | – | – | – | – | – | – | 0.351 | 0.367 | 0.344 | 0.337 | 0.327 | 0.657 | 0.554 | 0.612 | 0.323 | 0.602
NCI-H1299 | 1.09 | 1.03 | 1.03 | 1.05 | 1.04 | 0.998 | 1.1 | 1.09 | 1.03 | 1.2 | – | – | – | – | – | 1.01 | 1.16 | 1.06 | 0.622 | 1.21
NCI-H1563 | – | – | – | – | – | – | – | – | – | – | – | – | – | – | – | 0.918 | 0.958 | 0.92 | 0.937 | 0.833
NCI-H1623 | – | – | – | – | – | – | – | – | – | – | 0.448 | 0.429 | 0.423 | 0.436 | 0.377 | – | – | – | – | –
NCI-H1648 | – | – | – | – | – | – | – | – | – | – | 0.444 | 0.608 | 0.506 | 0.466 | 0.251 | – | – | – | – | –
NCI-H1650 | 1.26 | 1.08 | 1.22 | 1.02 | 1.4 | 1.05 | 1.53 | 1.21 | 1.21 | 1.06 | 0.379 | 0.483 | 0.421 | 0.325 | 0.277 | – | – | – | – | –
NCI-H1703 | 0.901 | 1.13 | 1.1 | 0.85 | 1.08 | 1.27 | 1.21 | 1.26 | – | 0.685 | – | – | – | – | – | 0.363 | 0.259 | 0.314 | – | 0.213
NCI-H1792 | 0.323 | 0.572 | 0.605 | 0.697 | 0.554 | 0.611 | 0.529 | 0.68 | 0.583 | 0.695 | – | – | – | – | – | 0.743 | 0.691 | 0.81 | 0.613 | 0.641
NCI-H2342 | – | – | – | – | – | – | – | – | – | – | 0.474 | 0.636 | 0.625 | 0.49 | 0.459 | – | – | – | – | –
SW 900 | – | – | – | – | – | – | – | – | – | – | 0.652 | 0.698 | 0.571 | 0.689 | 0.473 | – | – | – | – | –
